Read-outs that look alike come from different tables or passages of the source.
Experiments:
S. mansoni adult worms [1] = experiment: Adult worm screens (WormassayGP2 motility, egg count); type: cell-based; conditions: Schistosoma mansoni, two dose response titrations (100 – 3.13 µM)
S. mansoni schistosomula = experiment: Schistosomula screens (Roboworm, phenotype and motility); type: cell-based, Schistosoma mansoni; conditions: 72 h
Method: Anthelmintic activity on the schistosomula stage of S. mansoni was evaluated using Roboworm, an integrated high-throughput, high content image analysis platform originally developed by Paveley et al. and subsequently used by our research group as previously described, [28], [50], [51]. Alternatively, the computer application Worminator can be used to assess motion of microscopic parasites such as the schistosomula stage of S. mansoni. Compounds (as single concentration or two-fold titrations) were prepared for screening in a 384-well plate (PerkinElmer, MA, USA), where solutions (1.6 mM, 0.5 μl) were wet stamped using the Biomek NX ^P liquid handling platform into Basch medium (20 μl). Negative (0.625% DMSO) and positive (Auranofin - AUR - at 10 µM final concentration in 0.625% DMSO) control wells were similarly prepared. Mechanically transformed schistosomula (about 120 parasites in 60 μl of Basch medium) were distributed into each treated well using a WellMate (Thermo Scientific, Loughborough, UK). Schistosomula/compound co-cultures were then incubated at 37°C for 72 h in a humidified atmosphere containing 5% CO 2. At 72 h, parasite/compound co-cultures were resuspended and tissue culture plates were imaged under the same conditions (37°C for 72 h in a humidified atmosphere containing 5% CO 2) using an ImageXpressXL high content imager (Molecular Devices, UK) with subsequent images processed for phenotype and motility as previously reported. Plate analysis returned a phenotype and motility score for each well and any scores below -0.15 and -0.35 (defined threshold anti-schistosomula values for phenotype and motility scores, respectively) defined a condition displaying anti-schistosomula activity. Compound screens were assessed based on the Z´ values (derived from the means and standard deviations of positive and negative controls) and those equal to or above 0.3 for both phenotype and motility were considered successful.
Phenotype and motility scores of each titration were used to generate dose response curves in GraphPad Prism 7.02 based on the corrected average score of the three replicates for each data point.

[2] = MTT cytotoxicity assay on HepG2 cells; type: cell-based, Human; conditions: human, HepG2 cells, MTT, 24 h; three dose response titrations (200 - 1 µM)
Method: Compound cytotoxicity on Human Hepatocyte Carcinoma (HepG2) cells (85011430, Sigma Aldrich) was elucidated by the MTT (3-(4,5-dimethylthiazol-2-yl)-2,5-diphenyltetrazolium bromide) tetrazolium reduction assay as previously described, [28], [50]. Briefly, HepG2 cells were seeded at a density of 20,000 per well in 96-well black, clear bottom falcon plate in modified BME medium (50 μl; containing 1% antibiotic/mycotic (Sigma-Aldrich, Gillingham, UK), 1% 200 mM L-glutammine (Gibco, Paisley, UK), 1% MEM non-essential amino acid solution (Gibco, Paisley, UK), and 10% fetal bovine serum (Gibco, Paisley, UK)). HepG2 plates seeded for cytotoxicity screens were treated with compounds 24 h post-seeding. Each compound was tested at 200, 100, 75, 50, 20, 10 and 1 µM; each concentration was assayed in triplicate. Blank wells (no cells), as well as positive (1% v/v Triton X-100, X100, Sigma-Aldrich) and negative (1.25% v/v DMSO or media only) controls, were included in each plate. After addition of compounds, each plate was then incubated for a further 20 h before application of MTT reagent for assessment of compound cytotoxicity (4 h incubation with MTT for a total 24 h cell-drug incubation). The absorbance reading at 570 nm was measured with a POLARstar Omega (BMG Labtech, UK) microtiter plate reader. Dose response curves were generated in GraphPad Prism 7.02 based on the corrected average absorbance of the three replicates for each concentration point.

S. mansoni miracidia = experiment: Miracidia to sporocyst transformation screens; type: cell-based, Schistosoma mansoni; conditions: 48 h
Method: Following hatching of S. mansoni eggs, miracidia were incubated on ice for 15 min and then centrifuged at 700 x g for 5 min at 4°C. The miracidia pellet was then re-suspended in 5 ml of Chernin's balanced salt solution (CBSS), subjected to pelleting and two subsequent washes (all at 700 x g for 5 min at 4°C). Afterwards, the supernatant was carefully removed with a serological pipette and the miracidia-enriched pellet was resuspended with CBSS supplemented with 1 mg/ml each of glucose and trehalose and 500 µl of Penicillin-Streptomycin (containing 10,000 units penicillin and 10 mg streptomycin/ml, P4333, Sigma-Aldrich). In preparation for the screens, CBSS (250 µl) was aliquoted to each well of a 24-well plate followed by addition of each compound in DMSO (1 mM concentration in 1% DMSO) or DMSO alone (1%, negative control). Next, approximately 20-25 miracidia (in 250 µl of CBSS) were aliquoted to each well. […] Both preliminary and secondary screens were performed in duplicate on two separate occasions (two independent biological replicates). Miracidia were incubated for 48 h at 26°C before being evaluated using an Olympus inverted light microscope for morphological and behavioural changes differing from the control wells. Dead, partially transformed and fully transformed miracidia were enumerated in the DMSO control and the assay plates as previously described, [23], [59]. […] Absence of ciliated plates attached to the surface of the parasite and formation of sporocyst tegument defined the so-called “fully transformed” parasites.

S. mansoni adult worms [3] = experiment: Adult worm screens (WormassayGP2 motility, egg count); type: cell-based, Schistosoma mansoni; conditions: 72 h
Method: For compound screening, adult worms (three worm pairs/well for compound 7 and the hit compounds of set two; one worm pair/well for the hit compounds of set three) were transferred into wells of a 48-well tissue culture plate containing 1 ml of adult worm media. Adult worms were treated with compounds previously identified as hits at 10 µM on 72 h cultured schistosomula. Worms were dosed with an appropriate volume of 10 mM stock solution of each compound (in DMSO) to have a concentration range of 50 – 6.25 µM (up to 0.5% DMSO, primary screen of compound 7). Secondary screens were performed on the structural analogues of compound 7 (only the schistosomula hits at 10 µM) at a single concentration (12.5 µM) and compared to the same concentration of the parental compound (included in the screen as reference). DMSO (0.5%) and praziquantel (10 µM in 0.5% DMSO) were also included as negative and positive control treatments (both primary and secondary screens). Treated adult worms were incubated for 72 h in a humidified environment at 5% CO 2 at 37°C. Parasite motility after drug treatment was assessed by a digital image processing-based system (WormassayGP2, see Software availability) modified after Wormassay, [56], [57]. Egg production was assessed according to the methodology described by Edwards et al..

EC50 (S. mansoni adult worms [1]): 11 µM
EC50 (S. mansoni schistosomula; Schistosoma mansoni, average of phenotype and motility metrics, read-out: Schistosomula EC50 Average): 5.54 µM
EC50 (S. mansoni schistosomula; Schistosoma mansoni, dose response titrations (10 - 0.625 µM), read-out: Schistosomula EC50 Motility): 5.03 µM
EC50 (S. mansoni schistosomula; Schistosoma mansoni, dose response titrations (10 - 0.625 µM), read-out: Schistosomula EC50 Phenotype): 5.65 µM
EC50 (S. mansoni schistosomula; average of phenotype and motility metrics, read-out: Schistosomula EC50 Average): 5.34 µM
Structure (SMILES): c1ccc(Nc2nc(N3CCCC3)nc(N3CCNCC3)n2)cc1 [Compound 7]
anti-schistosomula activity (hit on phenotype and motility) (S. mansoni schistosomula; 10 µM): remaining active
anti-schistosomula activity (hit on phenotype and motility) (S. mansoni schistosomula; 50 µM): showed anti-schistosomal activity
schistosomula phenotype induced (S. mansoni schistosomula; both 50 and 10 µM): swollen with some individuals additionally displaying posterior end compression
CC50 at 24 h [2]: 13.7 µM
inhibition of miracidia transformation (S. mansoni miracidia; 5, 2 and 0.5 µM): 20–25%
effect on miracidia (S. mansoni miracidia; 50 and 25 µM): completely lethal
inhibition at 10 µM (S. mansoni miracidia; Schistosoma mansoni, 10 µM): 45%
effect on adult worms (motility) (S. mansoni adult worms [3]; 12.50 and 6.25 µM): worm recovery began at 12.50 µM and remained at 6.25 µM
effect on adult worms (motility) (S. mansoni adult worms [3]; 50 and 25 µM): lethal effect
egg production (worm fecundity) (S. mansoni adult worms [3]; titration 50 - 6.25 µM, effect up to and including 12.50 µM): particularly effective in inhibiting worm fecundity

Source: publication PMC7459852, “Identification of 6-(piperazin-1-yl)-1,3,5-triazine as a chemical scaffold with broad anti-schistosomal activities” (Wellcome Open Research, 2020)
